Assay results as given in the SangsterLogP compilation.

With `S=C(NC1CCCCC1)N1CCC(c2cnc[nH]2)CC1` as the compound, how does the logP read?
The logP was 2.4.

For `c1ccc(-c2c[nH]c(CCCc3cnc[nH]3)n2)cc1`, which logP is on record?
Its logP is 2.5.

Which logP does the source give for `O=S(=O)(Cc1ccc(Cl)cc1)NCCCCc1cnc[nH]1` here?
The logP was 2.23.

Which logP does the source give for `c1ccc2sc(SCCCc3cnc[nH]3)nc2c1` here?
The logP was 3.24.

With `c1ncc(CCCc2nc(C3CCCCC3)c[nH]2)[nH]1` as the compound, how does the logP read?
The logP was 2.94.

Which logP does the source give for `c1ccc2sc(NCCCc3cnc[nH]3)nc2c1` here?
The logP was 2.71.

Which logP does the source give for `Clc1ccc2[nH]c(NCCCc3cnc[nH]3)nc2c1` here?
The logP was 2.49.

For `c1ccc2sc(SCCc3cnc[nH]3)nc2c1`, which logP is on record?
Its logP is 3.12.

With `Clc1ccc(Cc2noc(CCc3cnc[nH]3)n2)cc1` as the compound, how does the logP read?
The logP was 2.51.

For `c1ccc(-c2cnc(SCCc3cnc[nH]3)[nH]2)cc1`, which logP is on record?
Its logP is 2.45.

For `c1ccc2sc(NCCc3c[nH]cn3)nc2c1`, which logP is on record?
The logP was 2.36.
